Reference: paper PMC4370629, “Structural and Functional Studies of Phosphoenolpyruvate Carboxykinase from Mycobacterium tuberculosis” (PLoS ONE, 2015)

Target: T1, Mtb Pck (Mycobacterium tuberculosis, UniProt P9WIH3)
T1 construct: gene pckG
Assay: biochemical

T1 sequence (P9WIH3 whole entry): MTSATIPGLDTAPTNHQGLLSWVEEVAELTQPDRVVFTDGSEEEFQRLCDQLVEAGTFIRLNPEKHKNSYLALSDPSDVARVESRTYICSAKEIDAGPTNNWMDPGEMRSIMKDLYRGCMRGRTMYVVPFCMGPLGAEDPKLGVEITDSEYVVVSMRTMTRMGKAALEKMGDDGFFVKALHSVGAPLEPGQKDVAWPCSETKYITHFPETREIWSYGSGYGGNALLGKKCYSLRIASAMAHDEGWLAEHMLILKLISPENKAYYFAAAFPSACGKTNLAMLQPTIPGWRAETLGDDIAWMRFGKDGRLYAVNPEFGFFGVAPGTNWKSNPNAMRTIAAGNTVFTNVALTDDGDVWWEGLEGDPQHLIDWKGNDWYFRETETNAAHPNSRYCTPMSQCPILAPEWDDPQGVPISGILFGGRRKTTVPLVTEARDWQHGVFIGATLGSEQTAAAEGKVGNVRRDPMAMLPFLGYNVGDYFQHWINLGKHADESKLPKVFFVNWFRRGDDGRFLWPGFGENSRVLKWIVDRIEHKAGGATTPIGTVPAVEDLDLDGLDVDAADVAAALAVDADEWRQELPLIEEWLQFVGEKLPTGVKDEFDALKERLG

Question: Which Kd does the source give for Nc1nc2c(ncn2[C@@H]2O[C@H](COP(=O)(O)OP(=O)(O)OP(=O)(O)O)[C@@H](O)[C@H]2O)c(=O)[nH]1 [GTP] here?
Answer: The Kd was 7.3 µM.
